No end group written: not given here.

The subject of data set [1] is fully modified human tRNA^LYS3 anticodon stem and loop domain (modified ASL^LYS3). The data set can be described thus: Fluorescence titration of fluorescein-conjugated peptides with modified ASL^LYS3. The following applies: for specific recognition of the modifications of the ASLLys3: comparison of titration with modified and with unmodified ASL^LYS3; for binding to the modified ASL^LYS3 (fluorescence monitored): fluorescein-conjugated peptide titrated with modified ASL^LYS3. In kind it is binding. An excerpt: (§1) The sequences of the target ASLLys3 and that of control ASLs are shown. Peptides were selected against the ASLLys3 and tested against all three. The ASL^LYS3 contains the natural modified nucleosides, 5-methoxycarbonylmethyl-2-thiouridine-34 (mcm5s2U34), 2-methylthio-N6-threonylcarbamoyladenosine-37 (ms2t6A37), and pseudouridine-39 (Ψ39).
(§2) Peptides were selected by phage display methods to bind to the modified ASL^LYS3. Control peptides were selected for their lack of recognition. Each peptide is synthesized with a conjugated fluorescein as a reporter. Here control peptide #21 is titrated with the three ASLs and the fluorescence is monitored.
Peptides #6 and #17 were selected by phage display methods to bind to the modified ASL^LYS3. These peptides along with control peptide #21 were synthesized with a conjugated fluorescein as a reporter. Here the three peptides are titrated with the modified ASLLys3 and the fluorescence is monitored.

Data set [2] concerns unmodified ASL^LYS3. Nature of the data set: Fluorescence titration of fluorescein-conjugated peptides with unmodified ASL^LYS3. The note with it: fluorescein-conjugated peptide titrated with unmodified ASL^LYS3. The data set is classed as binding.
From the text: as §1, §2
Peptides #6 and #17 were selected by phage display methods to bind to the modified ASL^LYS3. These peptides along with control peptide #21 were synthesized with a conjugated fluorescein as a reporter. Here the three peptides are titrated with the unmodified ASL^LYS3 and the fluorescence is monitored.

In data set [3] the test system is equine infectious anemia virus (EIAV). Nature of the data set: Reverse transcriptase activity in EIAV infected feline (FEA) cells shear-loaded with peptide. In kind it is cell-based. Here is the method: (§3) EIAV is a lentivirus as is HIV, and as such utilizes the host cell tRNA^LYS3 for priming reverse transcription. EIAV infected feline (FEA) cells are “shear-loaded” with three concentrations (5, 10, 35) of peptide #6 that binds the modified ASL^LYS3 portion of HIV primer. Cells are sham loaded with phosphate buffered saline (PBS). The effect of the peptide on reverse transcriptase activity and on toxicity are determined after 1, 2 and 3 days.

Data set [4] concerns EIAV infected feline (FEA) cells. The data set can be described thus: Toxicity by staining in EIAV infected feline (FEA) cells shear-loaded with peptide. In kind it is cell-based. Here is the method: as §3
In data set [5] the test system is Feline (FEA) cells. The data set can be described thus: Shear-loading of feline (FEA) cells with fluorescein-conjugated peptide: fluorescence microscopy and toxicity staining. In kind it is cell-based. The following applies: after 1, 2 and 3 days, at the concentrations used for loading. An excerpt: Feline (FEA) cells are “shear-loaded” with the peptide #6 that binds the modified ASLLys3. Fluorescein-conjugated, peptide #6 is located with fluorescence microscopy First row: Sham loaded cells. Second row: Peptide loaded. Third row: Peptide loaded at 40× magnification.

“PKAFQYGGRAVGGLW (hASL LYS3 binding peptide) [compound 7]”: in data set [1], the “specific recognition of the modifications of the ASLLys3” value was “specifically recognizing the modifications”.
As to “PAVASTSSLIIDGPF (also: fluorescein label, position not given here) [peptide #6]”, in data set [2], the “binding to the unmodified ASL^LYS3 (fluorescence monitored)” value is reported as “do not exhibit binding”. In data set [1], the “specific recognition of the modifications of the ASLLys3” value was “specifically recognizing the modifications” and the “binding to the modified ASL^LYS3 (fluorescence monitored)” value is “bind”. For the same sequence, the reverse transcriptase activity result in data set [3] (EIAV infected FEA cells loaded with fluorescein-conjugated peptide, three concentrations (5, 10, 35), versus PBS sham loaded) is “significantly reduced”. The “bioactivity in cells against reverse transcription” value in data set [3] (EIAV infected FEA cells, at days 2 and 3) was “significant bioactivity”. Further, the “toxicity (staining of the cells)” value in data set [4] (high concentration) is “only slightly toxic”. Also, in data set [4] (low and middle concentrations), the “toxicity (staining of the cells)” value is “not toxic”. In data set [5], the “toxicity, determined by staining” value was “not toxic”.
For the sequence “NGPECNAYMVRCRGYH (cysteine pairing not given here; also: fluorescein label, position not given here) [compound 17]”, the “binding to the unmodified ASL^LYS3 (fluorescence monitored)” value in data set [2] is on record as “do not exhibit binding”. Besides, in data set [1], the “binding to the modified ASL^LYS3 (fluorescence monitored)” value is “bind”.

The record behind these values is patent US8609609B2, “Peptides and methods of use as therapeutics and screening agents” (North Carolina State University, priority 2008, dated 2013).
